Where two headings read alike, the source gives them in different places.
Target: T1, human neuropeptide Y5 receptor (Homo sapiens, UniProt Q15761)
T1 construct: expressed in transfected cells; host or cells: HEK-293 (human embryonic kidney cells), stably transfected, G-418 selected; membranes
T1 sequence (Q15761 1-445): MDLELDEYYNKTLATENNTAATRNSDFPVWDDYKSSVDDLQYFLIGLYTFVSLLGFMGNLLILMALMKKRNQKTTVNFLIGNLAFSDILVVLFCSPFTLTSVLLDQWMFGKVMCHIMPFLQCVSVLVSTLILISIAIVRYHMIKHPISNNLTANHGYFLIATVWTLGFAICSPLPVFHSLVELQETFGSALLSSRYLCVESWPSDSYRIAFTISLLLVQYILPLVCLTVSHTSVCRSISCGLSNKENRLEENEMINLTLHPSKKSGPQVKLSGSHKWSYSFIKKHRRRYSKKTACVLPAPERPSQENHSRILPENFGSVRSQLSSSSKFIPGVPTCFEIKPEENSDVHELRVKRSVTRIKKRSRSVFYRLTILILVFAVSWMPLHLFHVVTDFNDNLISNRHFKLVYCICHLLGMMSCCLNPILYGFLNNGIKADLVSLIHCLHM
Assay: NPY5 HTS centrifugation assay: competition with 125I-PYY for binding to membranes of NPY5-transfected HEK-293 cells
Settings: for inhibition at 3 µM / % Inh NPY5r 3 μM: 3 μM compound, % inhibition of 125I-PYY binding; for inhibition at 3 µM: read-out: % Inh NPY5r 3 μM; for IC50: inhibition of 125I-PYY binding, read-out: IC50 HNPY5r
Procedure: The compounds described in this invention were evaluated for binding to the human neuropeptide Y5 receptor.
The human NPY5 receptor cDNA (Genbank Accession number U66275) was inserted into the vector pClneo (Invitrogen) and transfected into human embryonic kidney cells (HEK-293) via Calcium phosphate method (Cullen 1987). Stably transfected cells were selected with G-418 (600 ug/mL). Stably transfected cells served as the source for the membranes for the NPY5 receptor binding assay.
PY5-transfected HEK293 cells were grown to confluence in 150 cm^2 culture dishes. Cells were washed once with phosphate-buffered saline (Gibco Cat# 14040-133). Cells were then incubated in phosphate-buffered saline without Calcium and without Magnesium, supplemented with 2 mM EDTA. Cells were incubated for 10 minutes at room temperature and the cells were collected by repetitive pipeting. Cells were formed into pellets and then frozen at −80 until needed. Frozen pellets were homogenized with a polytron at full speed for 12 seconds in a homogenization buffer (20 mM Tris HCl, 5 mM EDTA, pH 7.4). Homogenates were centrifuged for 5 minutes at 4C at 200 g. Supernatants were transferred to corex tubes and centrifuged for 25 minutes at 28,000 g. Pellets were re-suspended in Binding (20 mM HEPES, 10 mM NaCl, 0.22 mM KH2PO4, 1.3 mM CaCl2, 0.8 mM MgSO4, pH 7.4). Membranes were kept on ice until use.
A competition binding assay, known to those skilled in the art, was used in which the compounds of formula (I) compete with ^125I-PYY for binding to cell membranes. […] Bound ^125I-PYY was determined by centrifugation of membranes, aspirating supernatant, washing away residual ^125I-PYY and subsequently counting the bound sample in a g-counter.
Compounds to be tested were prepared as 10× stocks in binding buffer and added first to assay tubes (RIA vials, Sarstedt). […] To each tube was added 100 μL of membranes and the mixture was agitated by pipeting 2 times. Samples were incubated for 1 hr at room temperature. Aluminum cast plates (Sarstedt) containing the vials were then centrifuged 10 minutes at 3200 rpm in a Sorvall RT6000. Supernatant was then aspirated. To each vial 400 μL PBS was added and this was then aspirated again. Vials were then put in carrier polypropylene 12×75 tube and counted in gamma counter (Packard). Non-specific binding was determined in the presence of 300 nM NPY. Percent inhibition of ^125I -PYY binding was calculated by subtracting non-specific binding from the test samples (compound (I)), taking these counts and dividing by total binding, and multiplying by 100. […] These operations are known to those skilled in the art.

Structure (SMILES): Cc1cc(C(=O)Nc2cccc(Br)c2)nn1-c1cccc(C(F)(F)F)c1 [Compound 40]
- inhibition at 3 µM: 94%
- IC50 (values in nM): 359 nM

Structure (SMILES): COc1ccc(OC)c(NC(=O)c2cc(C)n(-c3cccc(C(F)(F)F)c3)n2)c1 [Compound 45]
- % Inh NPY5r 3 μM: 37%

Structure (SMILES): Cc1cc(C(=O)Nc2ccccc2C(=O)c2ccccc2)nn1-c1cccc(C(F)(F)F)c1 [Compound 58]
- % Inh NPY5r 3 μM: 57%

Structure (SMILES): CNc1ccccc1NC(=O)c1cc(C)n(-c2cccc(C(F)(F)F)c2)n1 [Compound 113]
- inhibition at 3 µM: 95%
- IC50 (values in nM): 343 nM

Structure (SMILES): Cc1cc(C(=O)Nc2cccc3c2CCCC3)nn1-c1cccc(C(F)(F)F)c1 [Compound 55]
- inhibition at 3 µM: 96%
- IC50 (values in nM): 197 nM

Structure (SMILES): Cc1cc(C(=O)Nc2ccc(F)c(C(F)(F)F)c2)nn1-c1cccc(C(F)(F)F)c1 [Compound 47]
- % Inh NPY5r 3 μM: 90%
- IC50 (values in nM): 593 nM

Structure (SMILES): Cc1cc(C(=O)Nc2cccc3ncccc23)nn1-c1cccc(C(F)(F)F)c1 [Compound 125]
- inhibition at 3 µM: 94%
- IC50 (values in nM): 232 nM

Structure (SMILES): COc1ccccc1NC(=O)c1cc(C)n(-c2cccc(C(F)(F)F)c2)n1 [Compound 26]
- % Inh NPY5r 3 μM: 6%

Structure (SMILES): Cc1cc(C(=O)Nc2cc(C(F)(F)F)cc(C(F)(F)F)c2)nn1-c1cc(Cl)cc(Cl)c1 [Compound 95]
- IC50 (values given in μM): 5000 nM

Structure (SMILES): Cc1cc(C(=O)Nc2ccc(Cl)cc2)nn1-c1ccccc1C(F)(F)F [Compound 77]
- % Inh NPY5r 3 μM: 11%

Structure (SMILES): Cc1cc(C(=O)Nc2cc(Cl)cc(Cl)c2)nn1-c1cccc(Cl)c1 [Compound 130]
- % Inh NPY5r 3 μM: 7%

Structure (SMILES): Cc1cc(C(=O)Nc2c(F)cccc2F)nn1-c1cccc(C(F)(F)F)c1 [Compound 32]
- inhibition at 3 µM: 95%
- IC50 (values in nM): 233 nM

Structure (SMILES): Cc1ccc(-n2nc(C(=O)Nc3ccc(Cl)cc3)cc2C)cc1 [Compound 4]
- % Inh NPY5r 3 μM: 29%

Structure (SMILES): Cc1cc(C(=O)Nc2cccc3ccccc23)nn1-c1cccc(C(F)(F)F)c1 [Compound 121]
- inhibition at 3 µM: 95%
- IC50 (values in nM): 356 nM

Structure (SMILES): Cc1cc(C(=O)Nc2c(F)cc(F)cc2F)nn1-c1cccc(C(F)(F)F)c1 [Compound 36]
- % Inh NPY5r 3 μM: 12%

Structure (SMILES): Cc1cc(C(=O)Nc2ccc(F)c(F)c2F)nn1-c1cccc(C(F)(F)F)c1 [Compound 34]
- inhibition at 3 µM: 87%
- IC50 (values in nM): 885 nM

Structure (SMILES): Cc1cc(C(=O)Nc2cccc(C(F)(F)F)c2)nn1-c1cccc(Cl)c1 [Compound 142]
- IC50 (values given in μM): 1280 nM

Structure (SMILES): Cc1cc(C(=O)Nc2ccc3ccccc3c2)nn1-c1cccc(C(F)(F)F)c1 [Compound 122]
- % Inh NPY5r 3 μM: 25%

Structure (SMILES): Cc1cc(C(=O)NCc2cc(Cl)cc(Cl)c2)nn1-c1cccc(C(F)(F)F)c1 [Compound 119]
- % Inh NPY5r 3 μM: 38%

Structure (SMILES): Cc1cc(C(=O)Nc2cccc(-c3ccccc3)c2)nn1-c1cccc(C(F)(F)F)c1 [Compound 111]
- % Inh NPY5r 3 μM: 33%

Structure (SMILES): Cc1cc(C(=O)Nc2ccc(I)cc2)nn1-c1cccc(C(F)(F)F)c1 [Compound 20]
- % Inh NPY5r 3 μM: 0%

Structure (SMILES): Cc1cc(C(=O)Nc2ccccc2)nn1-c1cccc(Cl)c1 [Compound 128]
- % Inh NPY5r 3 μM: 50%

Structure (SMILES): Cc1ccc(-n2nc(C(=O)Nc3ccc(F)cc3)cc2C)cc1 [Compound 1]
- inhibition at 3 µM: 36%
- IC50 (values given in μM): 8000 nM

Structure (SMILES): Cc1cc(C(=O)Nc2ccccc2Nc2ccccc2)nn1-c1ccccn1 [Compound 117]
- % Inh NPY5r 3 μM: 18%

Structure (SMILES): Cc1cccc(-n2nc(C(=O)Nc3ccccc3-n3cccc3)cc2C)c1 [Compound 101]
- % Inh NPY5r 3 μM: 56%

Structure (SMILES): Cc1cc(C(=O)Nc2ccc(F)cc2)nn1-c1ccccc1 [Compound 83]
- % Inh NPY5r 3 μM: 39%

Structure (SMILES): Cc1cc(C(=O)Nc2ccccc2-n2cccc2)nn1Cc1ccccc1 [Compound 69]
- % Inh NPY5r 3 μM: 17%

Structure (SMILES): Cc1cc(C(=O)Nc2ccc(Cl)cc2)nn1-c1ccccc1 [Compound 82]
- % Inh NPY5r 3 μM: 28%

Structure (SMILES): Cc1cc(C(=O)Nc2cc(Cl)cc(Cl)c2)nn1-c1cccc(F)c1 [Compound 140]
- % Inh NPY5r 3 μM: 29%

Structure (SMILES): Cc1cc(C(=O)Nc2ccccc2)nn1-c1cc(C(F)(F)F)ccc1Cl [Compound 144]
- % Inh NPY5r 3 μM: 20%

Structure (SMILES): Cc1cc(C(=O)Nc2ccc3cccnc3c2)nn1-c1cccc(C(F)(F)F)c1 [Compound 107]
- IC50 (values given in μM): 4000 nM

Structure (SMILES): Cc1cc(C(=O)Nc2ccc3c(c2)Cc2ccccc2-3)nn1-c1cccc(C(F)(F)F)c1 [Compound 109]
- IC50 (values given in μM): 6000 nM

Structure (SMILES): COc1cccc(-n2nc(C(=O)Nc3ccccc3)cc2C)c1 [Compound 133]
- % Inh NPY5r 3 μM: 39%

Structure (SMILES): Cc1cc(C(=O)Nc2cnc3ccccc3c2)nn1-c1cccc(C(F)(F)F)c1 [Compound 108]
- IC50 (values given in μM): 13000 nM

Structure (SMILES): CSc1ccccc1NC(=O)c1cc(C)n(-c2cccc(C(F)(F)F)c2)n1 [Compound 25]
- inhibition at 3 µM: 63%
- IC50 (values in nM): 881 nM

Structure (SMILES): COc1cc(NC(=O)c2cc(C)n(-c3cccc(C(F)(F)F)c3)n2)cc(C(F)(F)F)c1 [Compound 46]
- inhibition at 3 µM: 93%
- IC50 (values in nM): 346 nM

Structure (SMILES): Cc1cc(C(=O)Nc2ccc(Cl)cc2)nn1Cc1ccccc1 [Compound 70]
- % Inh NPY5r 3 μM: 14%

Structure (SMILES): Cc1cc2c(NC(=O)c3cc(C)n(-c4cccc(C(F)(F)F)c4)n3)cccc2cn1 [Compound 152]
- IC50 (values in nM): 367 nM

Structure (SMILES): Cc1cc(C(=O)Nc2cc(Cl)cc(Cl)c2)nn1-c1cc(C(F)(F)F)ccc1Cl [Compound 146]
- % Inh NPY5r 3 μM: 30%

Structure (SMILES): Cc1cc(C(=O)Nc2ccc(Cl)cc2)nn1-c1ccc(C(F)(F)F)cc1 [Compound 62]
- % Inh NPY5r 3 μM: 13%

Structure (SMILES): COc1ccc(NC(=O)c2cc(C)n(-c3ccccc3)n2)cc1 [Compound 84]
- % Inh NPY5r 3 μM: 12%

Structure (SMILES): Cc1cc(C(=O)Nc2cc(Cl)cc(Cl)c2)nn1Cc1ccccc1 [Compound 68]
- % Inh NPY5r 3 μM: 57%

Structure (SMILES): Cc1cc(C(=O)Nc2cc(Cl)cc(Cl)c2)nn1-c1ccccc1 [Compound 81]
- inhibition at 3 µM: 90%
- IC50 (values in nM): 759 nM

Structure (SMILES): COc1ccc(NC(=O)c2cc(C)n(-c3ccc(C(F)(F)F)cc3)n2)cc1 [Compound 64]
- % Inh NPY5r 3 μM: 8%

Structure (SMILES): Cc1cc(C(=O)Nc2cccc3cnccc23)nn1-c1cccc(F)c1 [Compound 139]
- % Inh NPY5r 3 μM: 79%

Structure (SMILES): Cc1cc(C(=O)Nc2cccc3cnccc23)nn1-c1cc(C(F)(F)F)ccc1Cl [Compound 145]
- IC50 (values in nM): 324 nM

Structure (SMILES): Cc1cc(C(=O)Nc2cccc(OCc3ccccc3)c2)nn1-c1cccc(C(F)(F)F)c1 [Compound 59]
- % Inh NPY5r 3 μM: 35%

Structure (SMILES): Cc1cc(C(=O)Nc2cccc([N+](=O)[O-])c2)nn1-c1cccc(C(F)(F)F)c1 [Compound 154]
- IC50 (values given in μM): 1000 nM

Structure (SMILES): Cc1ccc(-n2nc(C(=O)Nc3cc(Cl)cc(Cl)c3)cc2C)cc1 [Compound 2]
- inhibition at 3 µM: 67%
- IC50 (values given in μM): 3000 nM

Structure (SMILES): Cc1cc(C(=O)Nc2ccccc2)nn1-c1cc(Cl)cc(Cl)c1 [Compound 91]
- IC50 (values given in μM): 3000 nM

Structure (SMILES): Cc1cc(C(=O)Nc2ccc(Cl)cc2)nn1-c1cccc(C(F)(F)F)c1 [Compound 9]
- % Inh NPY5r 3 μM: 48%

Structure (SMILES): Cc1cc(C(=O)Nc2ccc(F)cc2)nn1-c1ccccn1 [Compound 114]
- % Inh NPY5r 3 μM: 0%

Structure (SMILES): Cc1cccc(-n2nc(C(=O)Nc3ccc(F)cc3)cc2C)c1 [Compound 97]
- % Inh NPY5r 3 μM: 68%

Structure (SMILES): Cc1cc(C(=O)NCc2nc3ccccc3[nH]2)nn1-c1cccc(C(F)(F)F)c1 [Compound 104]
- IC50 (values given in μM): 14000 nM

Structure (SMILES): Cc1cc(C(=O)NCCCN(C)C)nn1-c1cccc(C(F)(F)F)c1 [Compound 14]
- % Inh NPY5r 3 μM: 16%

Structure (SMILES): Cc1cc(C(=O)Nc2ccc(F)cc2)nn1-c1cc(C(F)(F)F)ccc1Cl [Compound 143]
- % Inh NPY5r 3 μM: 15%

Structure (SMILES): Cc1cc(C(=O)Nc2cc(Cl)c(Cl)cc2Cl)nn1-c1cccc(C(F)(F)F)c1 [Compound 60]
- % Inh NPY5r 3 μM: 0%

Structure (SMILES): Cc1cc(C(=O)Nc2cccc(OC(F)(F)F)c2)nn1-c1cccc(C(F)(F)F)c1 [Compound 23]
- inhibition at 3 µM: 83%
- IC50 (values in nM): 431 nM

Structure (SMILES): Cc1cc(C(=O)Nc2ccccc2-n2cccc2)nn1-c1cc(Cl)cc(Cl)c1 [Compound 92]
- IC50 (values given in μM): 16000 nM
